# Test results from paper PMC6256112, “Cannabinoid Receptor 2 Signalling Bias Elicited by 2,4,6-Trisubstituted 1,3,5-Triazines” (Frontiers in Pharmacology, 2018).
# What was measured:
# hCB1 = target: T1, hCB1 (Homo sapiens, UniProt P21554); experiment: Radioligand competition binding screen with [3H]-CP 55,940 on hCB1-expressing HEK membranes; details: 10 μM compound; displacement of 0.75 nM [3H]-CP 55,940
# T1 construct: expressed in transfected cells; host or cells: HEK (membranes)
# HEK Flp-in wt cells = experiment: CAMYEL cAMP assay in HEK Flp-in wt cells (non-hCB2-mediated effects); format: cell-based, human; details: HEK Flp-in wt
# hCB2 [1] = target: T2, hCB2 (Homo sapiens, UniProt P34972); experiment: Comparison of efficacy/potency and operational-model bias analysis between hCB2 pathways, reference CP 55,940; format: cell-based
# T2 construct: expressed in transfected cells; host or cells: HEK Flp-in
# T2 sequence (P34972 whole entry): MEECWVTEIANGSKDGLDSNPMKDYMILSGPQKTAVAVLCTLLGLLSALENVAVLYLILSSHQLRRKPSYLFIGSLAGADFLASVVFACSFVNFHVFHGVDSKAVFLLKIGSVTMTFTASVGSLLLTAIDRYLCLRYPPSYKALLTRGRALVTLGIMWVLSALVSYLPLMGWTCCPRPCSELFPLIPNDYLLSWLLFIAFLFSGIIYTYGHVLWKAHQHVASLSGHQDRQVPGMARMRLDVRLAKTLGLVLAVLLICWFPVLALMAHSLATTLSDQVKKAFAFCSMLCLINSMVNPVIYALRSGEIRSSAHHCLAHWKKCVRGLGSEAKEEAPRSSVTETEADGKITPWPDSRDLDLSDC
# hCB2 [2] = target: T2, hCB2; experiment: Radioligand competition binding with [3H]-CP 55,940 on hCB2-expressing HEK membranes; details: for hCB2 displacement of [3H]-CP 55,940 in 10 μM screen (in words): 10 μM heterologous competition screen, cut-off 60%; for inhibition at 10 µM: 1 h, read-out: CB2 binding extent at 10 μM (%) (±SEM)
# hCB2 [3] = target: T2, hCB2; experiment: Real-time CAMYEL BRET cAMP assay, forskolin-stimulated HEK Flp-in hCB2 cells; format: cell-based
# Protocol: Cellular cAMP levels were measured using a real-time BRET biosensor (CAMYEL) as previously described ([Cawston et al., 2013]). In brief, cells were seeded in 10 cm dishes one day prior to transfection. The medium was then replaced and cells transfected with 5 μg of pcDNA3L-His-CAMYEL (ATCC, Manassas, VA, United States) using linear PEI (MW 25 kDa; Polysciences, Warrington, PA, United States) with a DNA:PEI ratio of 1:6. Approximately 24 h after transfection, cells were trypsinised and re-plated in poly-D-lysine treated white 96-well plates (Corning), at a density of 5–6 × 10^4 cells per well. For experiments involving pertussis toxin (PTX; Sigma-Aldrich) pre-treatment, cells were seeded in half the usual volume of medium, and then ∼5 h later, 2× concentrated PTX or vehicle (50% glycerol, […] Tris–HCl pH 7.5, 10 mM glycine, 500 mM NaCl) were prepared in medium and added to the existing plating medium (giving rise to a final PTX concentration of 100 ng mL^-1). Approximately 24 h after plating (or 16–20 h after applying PTX/vehicle in experiments involving PTX treatment), cells were washed once with Hank’s Balanced Salt Solution (HBSS, Thermo Fisher Scientific, catalogue #14025-134), and then equilibrated for 30 min in HBSS supplemented with 1 mg mL^-1 BSA. Coelenterazine h (final concentration 5 μM; NanoLight Technologies, Pinetop, AZ, United States) was added to each well and incubated for 5 min. Forskolin was added (final concentration 5 μM) and incubated for 6 min (allowing enough time for the induced cAMP increase to plateau), prior to vehicle/drug addition. All drugs and reagents were prepared in HBSS supplemented with 1 mg mL^-1 BSA. SR 144528 was a generous gift from Roche (Basel, Switzerland).
# Assays were carried out in technical duplicate. Emissions were detected at 460 nm (Rluc) and 535 nm (YFP) with either a LUMIstar® Omega luminometer (BMG Labtech, Ortenberg, Germany) or CLARIOstar® (BMG Labtech). BRET ratios (535 nm emissions/460 nm emissions, where an increase in ratio corresponds to a decrease in cAMP) were normalised to pre-forskolin reads (i.e., with coelenterazine h present) to remove any variability present prior to addition of forskolin and drug/vehicle. A Lowess curve (GraphPad Prism) was fitted to individual technical replicates within an assay so that cAMP signalling data could be extrapolated from any time point as opposed to only those that were empirically measured (typically every 30–60 s). Data were normalised to matched vehicle (0%) and forskolin (100%) treatments, allowing compilation of data from independent experiments.
# hCB2 [4] = target: T2, hCB2; experiment: pERK AlphaLISA assay, HEK Flp-in hCB2 cells; format: cell-based
# hCB2 [5] = target: T2, hCB2; experiment: hCB2 internalisation assay (immunocytochemistry of surface receptor), HEK Flp-in hCB2 cells; format: cell-based; design: Emax: dose or concentration left out as unconfirmed
# [6] = 10^ΔΔlogR, relative to CP 55,940
# [7] = relative to reference ligand CP 55,940
# [8] = 10 μM compound, displacement of 0.5 nM [3H]-CP 55,940
# [9] = operational model transduction ratio
# T1 sequence (P21554 whole entry): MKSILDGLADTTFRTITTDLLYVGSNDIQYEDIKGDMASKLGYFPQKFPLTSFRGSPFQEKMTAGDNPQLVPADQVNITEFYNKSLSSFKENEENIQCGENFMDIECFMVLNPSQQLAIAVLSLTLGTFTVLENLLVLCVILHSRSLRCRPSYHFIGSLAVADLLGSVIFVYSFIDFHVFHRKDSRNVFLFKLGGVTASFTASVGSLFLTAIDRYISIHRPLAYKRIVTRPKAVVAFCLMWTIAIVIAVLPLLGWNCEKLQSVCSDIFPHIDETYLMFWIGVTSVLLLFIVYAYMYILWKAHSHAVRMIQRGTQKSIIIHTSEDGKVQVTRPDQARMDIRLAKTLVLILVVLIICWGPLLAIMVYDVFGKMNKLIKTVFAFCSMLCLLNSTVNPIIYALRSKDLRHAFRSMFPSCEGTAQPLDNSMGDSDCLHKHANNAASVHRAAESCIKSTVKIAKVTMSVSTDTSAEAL
smiles,measurement,setting,value
"CCCCCCC(C)(C)c1ccc([C@@H]2C[C@H](O)CC[C@H]2CCCO)c(O)c1 [CP 55,940, reference compound]",CB1 binding extent at 10 μM (%) (±SEM),hCB1,100.0 (0.0) %
same,Non-hCB2-mediated effects on cAMP (in words),HEK Flp-in wt cells,least pronounced non-hCB2 signalling profile
same,Internalisation – pERK Bias factor,hCB2 [1]; [6],1.0
same,cAMP – internalisation Bias factor,hCB2 [1]; [6],1.0
same,cAMP – pERK Bias factor,hCB2 [1]; [6],1.0
same,Internalisation – pERK ΔΔlogR (±SEM),hCB2 [1]; [7],–0.02 (0.11)
same,cAMP – internalisation ΔΔlogR (±SEM),hCB2 [1]; [7],0.01 (0.10)
same,cAMP – pERK ΔΔlogR (±SEM),hCB2 [1]; [7],0.00 (0.04)
same,CB2 binding extent at 10 μM (%) (±SEM),hCB2 [2]; [8],100.0 (0.0) %
same,logR [log(τ/KA)] (±SEM) cAMP,hCB2 [3]; [9],8.52 (0.02)
same,cAMP potency lower than binding affinity,hCB2 [3]; pEC50 versus pKd,~0.4 log units
same,Emax,hCB2 [3]; read-out: cAMP (5 min) Emax (±SEM),-41.7%
same,pERK potency lower than that for cAMP,hCB2 [4],approximately 0.5 log unit
same,pERK potency lower than affinity,hCB2 [4]; EC50 versus Kd,~10 fold
same,logR [log(τ/KA)] (±SEM) pERK,hCB2 [4]; [9],8.05 (0.03)
same,Time of maximal pERK response,hCB2 [4]; time course experiment,4 min
same,Starting surface hCB2 internalised,hCB2 [5]; 1 h stimulation,~66%
same,logR [log(τ/KA)] (±SEM) Internalisation,hCB2 [5]; [9],8.76 (0.1)
same,Emax,hCB2 [5]; read-out: Internalisation (1 h) Emax (±SEM),-65.1%
"CCOc1nc(Cl)nc(NC2CCCC2)n1 [Compound 1, 4-Chloro-N-cyclopentyl-6-ethoxy-1,3,5-triazin-2-amine]","hCB2 displacement of [3H]-CP 55,940 in 10 μM screen (in words)",hCB2 [2],"failed to displace, or barely displaced"
same,inhibition at 10 µM,hCB2 [2]; [8],-8.1%
"CCOc1nc(NC2CCCC2)nc(N2CCNCC2)n1 [Compound 2, N-cyclopentyl-4-ethoxy-6-(piperazin-1-yl)-1,3,5-triazin-2-amine]","hCB2 displacement of [3H]-CP 55,940 in 10 μM screen (in words)",hCB2 [2],"failed to displace, or barely displaced"
same,inhibition at 10 µM,hCB2 [2]; [8],5.8%
"CCOc1nc(NC2CCCC2)nc(N2CCN(CCCCCCN)CC2)n1 [Compound 5, 4-(4-(6-Aminohexyl)Piperazin-1-yl)-N-Cyclopentyl-6-Ethoxy-1,3,5-Triazin-2-Amine]","hCB2 displacement of [3H]-CP 55,940 in 10 μM screen (in words)",hCB2 [2],"failed to displace, or barely displaced"
same,inhibition at 10 µM,hCB2 [2]; [8],16.6%
"CCOc1nc(NC2CCCC2)nc(N2CCN(CCOCCOCCN)CC2)n1 [Compound 6, 4-(4-(2-(2-(2-Aminoethoxy)Ethoxy)Ethyl)Piperazin-1-yl)-N-Cyclopentyl-6-Ethoxy-1,3,5-Triazin-2-Amine]","hCB2 displacement of [3H]-CP 55,940 in 10 μM screen (in words)",hCB2 [2],"failed to displace, or barely displaced"
same,inhibition at 10 µM,hCB2 [2]; [8],15.6%
